{"source": "PubChem BioAssay AID651992", "about": "(The Scripps Research Institute Molecular Screening Center, 2013)", "tested_on": "CFBE41o- DeltaF508-CFTR YFP halide quenching kinetics", "assay": "PubChem AID 651992", "conditions": "at 40 µM (top of the series)", "data": [{"compound": "COc1ccc(/C=C/C=C2C(=O)NC(=O)NC2=O)cc1", "values": [{"measurement": "YFP fluorescence ratio, lower = correction", "result": 1}]}]}
